Entries after “also recorded” stand apart in the source; their conditions may differ. Like-named read-outs stand apart in the source and are kept apart here.
Experiments:
U251 cell line of glioma = test: Cell proliferation assay (MTT), U251; format: cell-based; details: 1-100 μmol/L, 48 h, FIG. 7-8
Method: (§1) Cell Proliferation Assay (MTT): The experiment assaying the inhibition of dimethylamino glaucocalyxin A hydrochloride salt (hereinafter referred to as GH02) and glaucocalyxin A (i.e. GLA) on cell proliferation of cancer cell lines was performed as follows: cells of cancer cell lines were adjusted to a density of 10^4/100 μL and were seeded into 96-well plates at 100 μL per well and cultured overnight until the cells were completely adherent and grown up to 70-80% confluence. […] Subsequently, the supernatant was removed, 150 μL DMSO was added to each well and incubated with shaking for 10 min, and then the absorbance was measured at 490 nm on a microplate reader. Inhibitory rate of the cell proliferation=[(absorbance of the control group−absorbance of blank)−(absorbance of the medication group−absorbance of blank)]/(absorbance of the control group−absorbance of blank)% As shown in FIG. 4 to FIG. 6, MDA-MB-231 and MCF-7 are cell lines of breast cancer, SGC-7901 is a cell line of gastric cancer, U251 is a cell line of glioma, and A549 is a cell line of lung cancer.

[1] = tested on: A549 cell line of lung cancer; test: Cell proliferation assay (MTT), A549; format: cell-based; details: 1-100 μmol/L, 48 h, FIG. 7-8
Method: as §1

[2] = tested on: MCF-7 cell line of breast cancer; test: Cell proliferation assay (MTT), MCF-7; format: cell-based; details: 1-100 μmol/L, 48 h, FIG. 7-8
Method: as §1

[3] = Oral bioavailability / in vivo pharmacokinetics; details: when used as a drug; found by the inventors by means of experiments
[4] = tested on: MDA-MB-231 breast cancer cell line; test: Cell proliferation assay (MTT), MDA-MB-231; format: cell-based; details: 48 h; for Inhibitory rate of the cell proliferation versus concentration: 1-100 μmol/L; for IC50 for the inhibition of proliferation, compared among five cell lines: MTT
Method: Cell Proliferation Assay (MTT): The experiment assaying the inhibition of dimethylamino glaucocalyxin A hydrochloride salt (hereinafter referred to as GH02) and glaucocalyxin A (i.e. GLA) on cell proliferation of cancer cell lines was performed as follows: cells of cancer cell lines were adjusted to a density of 10^4/100 μL and were seeded into 96-well plates at 100 μL per well and cultured overnight until the cells were completely adherent and grown up to 70-80% confluence. The mother liquid of GH02 and GLA (both of which concentrations were 100 mM) were diluted with complete medium, respectively, to final concentrations of 1, 3.125, 6.25, 12.5, 25, 50, 100 μmol/L, and then such diluted solutions were added into wells of 96-well plates, with each concentration being performed in 4 replicates, and the group without cells acting as blank control, and then incubated in the incubator at […]. After incubation for 48 h, MTT was added to each well to a final concentration of 0.5 mg/ml and further incubated in the incubator at […] for 4 h. Subsequently, the supernatant was removed, 150 μL DMSO was added to each well and incubated with shaking for 10 min, and then the absorbance was measured at 490 nm on a microplate reader. Inhibitory rate of the cell proliferation=[(absorbance of the control group−absorbance of blank)−(absorbance of the medication group−absorbance of blank)]/(absorbance of the control group−absorbance of blank)% As shown in FIG. 4 to FIG. 6, MDA-MB-231 and MCF-7 are cell lines of breast cancer, SGC-7901 is a cell line of gastric cancer, U251 is a cell line of glioma, and A549 is a cell line of lung cancer.

[5] = tested on: SGC-7901 cell line of gastric cancer; test: Cell proliferation assay (MTT), SGC-7901; format: cell-based; details: 1-100 μmol/L, 48 h, FIG. 7-8
Method: as §1

Water solubility = format: physicochemical; details: found by the inventors by means of experiments
[6] = background statement; cited from earlier work
[7] = background statement; cited from earlier work; remark: listed apart in the source

oral bioavailability [3] | IC50 for the inhibition of proliferation, compared among five cell lines ([4]; FIG. 4-6, hydrochloride) | water solubility (Water solubility) | IC50 for the inhibition of proliferation, compared among five cell lines ([4]; FIG. 4-6) | Compound | Inhibitory rate of the cell proliferation versus concentration (U251 cell line of glioma) | Inhibitory rate of the cell proliferation versus concentration [1] | Inhibitory rate of the cell proliferation versus concentration [2] | Inhibitory rate of the cell proliferation versus concentration ([4]; FIG. 7-8, hydrochloride) | Inhibitory rate of the cell proliferation versus concentration [5] | bioavailability in vivo [6] | half-life in vivo [6] | Inhibitory rate of the cell proliferation versus concentration ([4]; FIG. 7-8) | water solubility [7]
high oral bioavailability | lowest IC50 values | good water solubility | – | CN(C)CC1C(=O)C23C(O)C1CCC2[C@]1(C)CCC(=O)C(C)(C)[C@H]1C[C@H]3O.Cl (some centres unmarked) [GH02, dimethylamino glaucocalyxin A hydrochloride] | increased with the increase of the concentration of GH02 | increased with the increase of the concentration of GH02 | increased with the increase of the concentration of GH02 | increased with the increase of the concentration of GH02; also recorded: highest inhibitory rate | increased with the increase of the concentration of GH02 | – | – | – | –
– | – | – | lowest IC50 values | C=C1C(=O)C23C(O)C1CCC2[C@]1(C)CCC(=O)C(C)(C)[C@H]1C[C@H]3O (stereo partly drawn) [GLA, Kaur-16-ene-3,15-dione,(7α, 14R)—] | increased with the increase of the concentration of GLA | increased with the increase of the concentration of GLA | increased with the increase of the concentration of GLA | – | increased with the increase of the concentration of GLA | low bioavailability | short half-life | increased with the increase of the concentration of GLA; also recorded: highest inhibitory rate | poor water solubility

Reference: patent publication US10196344B2, “Glaucocalyxin a derivative and preparation method and application thereof” (SUZHOU PHARMAVAN CANCER RESEARCH CENTER CO., LTD., priority 2015, dated 2019)
